From patent US20250092043A1, “Kinase Inhibitors and Degraders” (Incyte Corporation, priority 2023, published 2025)

Target: T1, JAK2 (Homo sapiens, UniProt O60674, V617F)
T1 construct: their effect on JAK2 protein degradation in SET2 cells; host or cells: SET2 cells (human essential thrombocythemia)
Experiment: Western blot quantitation of JAK2 degradation in SET2 cells
Format: cell-based
Settings: 0.5 μM compound (cells marked **), 8 hours treatment, western blot densitometry vs. DMSO vehicle
Procedure: Example E. Western Blot Analysis of JAK2 Dependent SET2 Cells Treated with Compounds of the Present Disclosure
SET2 cells (DSMZ, catalog number ACC 608) are isolated from a person with human essential thrombocythemia and carry the JAK2 V617F mutation.
SET2 cells were cultured in RPMI culture medium (Gibco, catalog number 11875085) supplemented with 1% penicillin-streptomycin-glutamine (Thermo Fisher Scientific, catalog number 10378016) and 20% fetal bovine serum (Gibco, catalog number 10438034). Cultured cells were maintained at 37° C., 5% CO2 in the incubator.
Approximately 1,000,000 cells/well were added in 6-well plate containing 1.5 ml culture media with specified concentrations of compounds of the present disclosure or DMSO control. Cells were treated with concentrations of 10 uM, 5 uM, 1 uM, and 0.5 uM. Proteasome inhibitor MG-132 (Cell signaling, catalog number 2194) was added at 20 uM to an additional 10 uM compound treatment. The treatment period was 8 hours. After 8 hours, cells were collected in 1.5 mL microcentrifuge tubes. Tubes were centrifuged at 1500 rpm for 5 min. Supernatant was aspirated and samples were washed with 1 mL of cold PBS. The samples were centrifuged again at 1500 rpm for 5 min, supernatant was aspirated. The sample pellets were lysed using 150 μL of 1× lysing buffer (Cell Signaling Technologies—catalog number 9803S) supplemented with 1× Halt™ Protease and Phosphatase Inhibitor Cocktail (Thermo Fisher Scientific—catalog number 78447). Using Pierce™ BCA Protein Assay Kit (Thermo Fisher Scientific—catalog number 23225), protein concentration of the samples were quantitated. After normalizing sample concentration to approximately 20 ug/well, samples were loaded onto 4-12% Tris-glycine gels. Gels were transferred to nitrocellulose membranes using iBlot 2 Dry Blotting System and iBlot™ 2 Transfer Stacks, nitrocellulose (Thermo Fisher Scientific—catalog number IB23001). Following transfer, membranes were blocked with StartingBlock (Thermo Fisher Scientific—catalog number 37543). After 1 hour of blocking membranes, they were probed for JAK2, pSTAT5, STAT5, CRBN, and GAPDH (Cell Signaling—catalog numbers 3230, 4322, 25656, 71810, and 5174 respectively).
Compounds of the present disclosure were screened at various concentrations to determine their effect on JAK2 protein degradation in SET2 cells, using methods as described above. DMSO was used as the vehicle control with no PROTAC® added. Co-administration of 20 μM of the proteasome inhibitor MG-132 with the PROTAC® compound at its highest concentration (i.e., 5 or 10 μM) tested was conducted to support the hypothesis that the degradation was driven by the ubiquitin-proteosome system (UPS). Degradation was evaluated by western blot densitometry quantitation using the FluorChem M instrument software to analyze the intensity of the JAK2 band signal at various concentrations of PROTAC® compound vs. the JAK2 band signal of the DMSO vehicle. It is noted that ˜82% of JAK2 exists as the V617F mutant, with the remaining 18% of JAK2 being WT. Therefore, if the V617F mutant JAK2 is selectively degraded over the WT, the maximum degradation is ˜80%. Degradation was graded as A: […]; B: ≥40% to <60% degradation; C: ≥20% to <40% degradation, D: <20% to ≥10%; E<10%. ** refers to degradation at 0.5 μM.

T1 sequence (O60674 whole entry V617F): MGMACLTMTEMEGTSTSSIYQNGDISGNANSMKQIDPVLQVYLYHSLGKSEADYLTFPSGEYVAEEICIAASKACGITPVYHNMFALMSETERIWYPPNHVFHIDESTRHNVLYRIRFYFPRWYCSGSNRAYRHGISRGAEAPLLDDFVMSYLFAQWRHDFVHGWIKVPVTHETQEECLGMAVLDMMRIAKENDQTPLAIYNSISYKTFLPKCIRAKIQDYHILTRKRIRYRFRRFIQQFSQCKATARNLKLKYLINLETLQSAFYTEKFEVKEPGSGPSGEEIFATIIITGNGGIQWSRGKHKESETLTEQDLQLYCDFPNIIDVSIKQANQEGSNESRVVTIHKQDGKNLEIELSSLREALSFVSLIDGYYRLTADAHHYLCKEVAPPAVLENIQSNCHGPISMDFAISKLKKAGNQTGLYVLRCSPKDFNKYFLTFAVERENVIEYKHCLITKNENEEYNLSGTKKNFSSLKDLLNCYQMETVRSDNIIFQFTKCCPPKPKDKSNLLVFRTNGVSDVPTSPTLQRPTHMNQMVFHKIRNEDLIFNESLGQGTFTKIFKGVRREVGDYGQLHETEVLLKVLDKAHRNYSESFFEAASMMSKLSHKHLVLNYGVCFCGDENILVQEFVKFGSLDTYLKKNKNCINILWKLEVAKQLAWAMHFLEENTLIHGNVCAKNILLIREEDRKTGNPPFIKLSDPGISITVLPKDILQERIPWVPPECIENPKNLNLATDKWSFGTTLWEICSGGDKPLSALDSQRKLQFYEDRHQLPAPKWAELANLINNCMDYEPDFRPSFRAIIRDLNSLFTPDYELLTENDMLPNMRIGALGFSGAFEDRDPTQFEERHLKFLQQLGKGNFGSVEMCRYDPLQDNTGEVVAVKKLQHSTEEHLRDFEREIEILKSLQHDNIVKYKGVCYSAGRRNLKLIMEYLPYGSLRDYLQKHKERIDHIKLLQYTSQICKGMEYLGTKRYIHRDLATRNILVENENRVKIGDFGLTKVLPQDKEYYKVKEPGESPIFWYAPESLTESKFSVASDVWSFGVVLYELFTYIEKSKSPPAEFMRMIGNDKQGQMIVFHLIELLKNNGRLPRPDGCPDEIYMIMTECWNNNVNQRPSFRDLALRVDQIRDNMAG

| Compound | JAK2 % Degradation in SET2 |
| --- | --- |
| COC(=O)N[C@@H]1CC[C@@H](n2c(=O)n(C)c3cnc4[nH]c(-c5ccc(C(=O)N6CCC(CN7CCN(c8ccc9c(c8)C(=O)N(C8CCC(=O)NC8=O)C9=O)CC7)CC6)c(F)c5)c(-c5ccc6c(cnn6C(C)C)c5)c4c32)C1 (stereo partly drawn) [Example 32, methyl ((1R,3R)-3-(7-(4-(4-((4-(2-(2,6-dioxopiperidin-3-yl)-1,3-dioxoisoindolin-5-yl)piperazin-1-yl)methyl)piperidine-1-carbonyl)-3-fluorophenyl)-8-(1-isopropyl-1H-indazol-5-yl)-3-methyl-2-oxo-3,6-dihydroimidazo[4,5-d]pyrrolo[2,3-b]pyridin-1(2H)-yl)cyclopentyl) carbamate] | B** (B: ≥40% to <60% degradation) |
| COC(=O)N[C@@H]1CC[C@@H](n2c(=O)n(C)c3cnc4[nH]c(-c5ccc(C(=O)N6CCC(CN7CCN(c8ccc9c(c8)C(=O)N(C8CCC(=O)NC8=O)C9=O)CC7)CC6)cc5)c(-c5ccc6c(cnn6C(C)C)c5)c4c32)C1 (stereo partly drawn) [Example 34, methyl ((1R,3R)-3-(7-(4-(4-((4-(2-(2,6-dioxopiperidin-3-yl)-1,3-dioxoisoindolin-5-yl)piperazin-1-yl)methyl)piperidine-1-carbonyl)phenyl)-8-(1-isopropyl-1H-indazol-5-yl)-3-methyl-2-oxo-3,6-dihydroimidazo[4,5-d]pyrrolo[2,3-b]pyridin-1(2H)-yl)cyclopentyl) carbamate] | A** (A: ≥600% degradation) |

Same assay, conditions: 10 μM compound, 8 hours treatment, western blot densitometry vs. DMSO vehicle

| Compound | JAK2 % Degradation in SET2 |
| --- | --- |
| COC(=O)N[C@@H]1CC[C@@H](n2c(=O)n(C)c3cnc4[nH]c(-c5ccc(C(=O)N6CCC(CN7CCN(c8cccc9c8C(=O)N(C8CCC(=O)NC8=O)C9=O)CC7)CC6)c(F)c5)c(-c5ccc6c(cnn6C(C)C)c5)c4c32)C1 (stereo partly drawn) [Example 1, Methyl((1R,3R)-3-(7-(4-(4-((4-(2-(2,6-dioxopiperidin-3-yl)-1,3-dioxoisoindolin-4-yl)piperazin-1-yl)methyl)piperidine-1-carbonyl)-3-fluorophenyl)-8-(1-isopropyl-1H-indazol-5-yl)-3-methyl-2-oxo-3,6-dihydroimidazo[4,5-d]pyrrolo[2,3-b]pyridin-1(2H)-yl)cyclopentyl)carbamate] | A (A: ≥600% degradation) |
| COC(=O)N[C@@H]1CC[C@@H](n2c(=O)n(C)c3cnc4[nH]c(-c5ccc(C(=O)NCCOCCOCC(=O)N[C@H](C(=O)N6C[C@H](O)C[C@H]6C(=O)NCc6ccc(-c7scnc7C)cc6)C(C)(C)C)c(F)c5)c(-c5ccc6c(cnn6C(C)C)c5)c4c32)C1 [Example 14, methyl ((1R,3R)-3-(7-(3-fluoro-4-((2-(2-(2-(((S)-1-((2S,4R)-4-hydroxy-2-((4-(4-methylthiazol-5-yl)benzyl)carbamoyl)pyrrolidin-1-yl)-3,3-dimethyl-1-oxobutan-2-yl)amino)-2-oxoethoxy)ethoxy)ethyl)carbamoyl)phenyl)-8-(1-isopropyl-1H-indazol-5-yl)-3-methyl-2-oxo-3,6-dihydroimidazo[4,5-d]pyrrolo[2,3-b]pyridin-1(2H)-yl)cyclopentyl) carbamate] | C (C: ≥20% to <40% degradation) |
| COC(=O)N[C@@H]1CC[C@@H](n2c(=O)n(C)c3cnc4[nH]c(-c5ccc(C(=O)NCCOCC(=O)Nc6ccc7c(c6)CN(C6CCC(=O)NC6=O)C7=O)c(F)c5)c(-c5ccc6c(cnn6C(C)C)c5)c4c32)C1 (stereo partly drawn) [Example 17, methyl ((1R,3R)-3-(7-(4-((2-(2-((2-(2,6-dioxopiperidin-3-yl)-1-oxoisoindolin-5-yl)amino)-2-oxoethoxy)ethyl)carbamoyl)-3-fluorophenyl)-8-(1-isopropyl-1H-indazol-5-yl)-3-methyl-2-oxo-3,6-dihydroimidazo[4,5-d]pyrrolo[2,3-b]pyridin-1(2H)-yl)cyclopentyl) carbamate] | E (E<10%) |
| COC(=O)N[C@@H]1CC[C@@H](n2c(=O)n(C)c3cnc4[nH]c(-c5ccc(C(=O)NCCOCC(=O)Nc6cccc7c6CN(C6CCC(=O)NC6=O)C7=O)c(F)c5)c(-c5ccc6c(cnn6C(C)C)c5)c4c32)C1 (stereo partly drawn) [Example 24, methyl ((1R,3R)-3-(7-(4-((2-(2-((2-(2,6-dioxopiperidin-3-yl)-1-oxoisoindolin-4-yl)amino)-2-oxoethoxy)ethyl)carbamoyl)-3-fluorophenyl)-8-(1-isopropyl-1H-indazol-5-yl)-3-methyl-2-oxo-3,6-dihydroimidazo[4,5-d]pyrrolo[2,3-b]pyridin-1(2H)-yl)cyclopentyl) carbamate] | C (C: ≥20% to <40% degradation) |
| COC(=O)N[C@@H]1CC[C@@H](n2c(=O)n(C)c3cnc4[nH]c(-c5ccc(C(=O)N(C)CCOCC(=O)Nc6ccc7c(c6)CN(C6CCC(=O)NC6=O)C7=O)c(F)c5)c(-c5ccc6c(cnn6C(C)C)c5)c4c32)C1 (stereo partly drawn) [Example 27, methyl ((1R,3R)-3-(7-(4-((2-(2-((2-(2,6-dioxopiperidin-3-yl)-1-oxoisoindolin-5-yl)amino)-2-oxoethoxy)ethyl)(methyl)carbamoyl)-3-fluorophenyl)-8-(1-isopropyl-1H-indazol-5-yl)-3-methyl-2-oxo-3,6-dihydroimidazo[4,5-d]pyrrolo[2,3-b]pyridin-1(2H)-yl)cyclopentyl) carbamate] | D (D: <20% to ≥10%) |
| COC(=O)N[C@@H]1CC[C@@H](n2c(=O)n(C)c3cnc4[nH]c(-c5ccc(C(=O)N6CCC(CN7CCN(c8cccc9c8C(=O)N(C8CCC(=O)NC8=O)C9=O)CC7)CC6)c(OC)c5)c(-c5ccc6c(cnn6C(C)C)c5)c4c32)C1 (stereo partly drawn) [Example 28, methyl ((1R,3R)-3-(7-(4-(4-((4-(2-(2,6-dioxopiperidin-3-yl)-1,3-dioxoisoindolin-4-yl)piperazin-1-yl)methyl)piperidine-1-carbonyl)-3-methoxyphenyl)-8-(1-isopropyl-1H-indazol-5-yl)-3-methyl-2-oxo-3,6-dihydroimidazo[4,5-d]pyrrolo[2,3-b]pyridin-1(2H)-yl)cyclopentyl) carbamate] | B (B: ≥40% to <60% degradation) |
| CCNC(=O)[C@H](Cc1ccc(F)cc1)NC(=O)[C@@H]1CCCN1C(=O)[C@@H](NC(=O)[C@H](C)NCCOCCNC(=O)c1ccc(-c2[nH]c3ncc4c(c3c2-c2ccc3c(cnn3C(C)C)c2)n([C@@H]2CC[C@@H](NC(=O)OC)C2)c(=O)n4C)cc1F)C1CCCCC1 [Example 31, methyl ((1R,3R)-3-(7-(4-((2-(2-(((S)-1-(((S)-1-cyclohexyl-2-((S)-2-(((S)-1-(ethylamino)-3-(4-fluorophenyl)-1-oxopropan-2-yl)carbamoyl)pyrrolidin-1-yl)-2-oxoethyl)amino)-1-oxopropan-2-yl)amino)ethoxy)ethyl)carbamoyl)-3-fluorophenyl)-8-(1-isopropyl-1H-indazol-5-yl)-3-methyl-2-oxo-3,6-dihydroimidazo[4,5-d]pyrrolo[2,3-b]pyridin-1(2H)-yl)cyclopentyl) carbamate] | C (C: ≥20% to <40% degradation) |
| COC(=O)N[C@@H]1CC[C@@H](n2c(=O)n(C)c3cnc4[nH]c(-c5ccc(C(=O)N6CCC(CN7CCN(c8cccc9c8C(=O)N(C8CCC(=O)NC8=O)C9=O)CC7)CC6)cc5)c(-c5ccc6c(cnn6C(C)C)c5)c4c32)C1 (stereo partly drawn) [Example 33, methyl ((1R,3R)-3-(7-(4-(4-((4-(2-(2,6-dioxopiperidin-3-yl)-1,3-dioxoisoindolin-4-yl)piperazin-1-yl)methyl)piperidine-1-carbonyl)phenyl)-8-(1-isopropyl-1H-indazol-5-yl)-3-methyl-2-oxo-3,6-dihydroimidazo[4,5-d]pyrrolo[2,3-b]pyridin-1(2H)-yl)cyclopentyl) carbamate] | A (A: ≥600% degradation) |
